We go through one molecule from patent publication US10086066B2, “Tissue targeted antigenic activation of the immune response to treat cancers” (Qu Biologics Inc., priority 2004, dated 2018).

The assay deals with 4T1 mammary carcinoma cells. Nature of the assay: Indomethacin efficacy study QB35, 4T1 mammary carcinoma (tumour volume, CD11b+ cells). The assay is classed as in vivo, mouse (Balb/c). As for the experimental part: In an effort to examine the efficacy of combining antigenic composition treatment with indomethacin. Briefly, experiments were designed wherein there were 10 mice in each of 4 groups with all treatments beginning on day 4 after tumour inoculation. All mice (Balb/c female) received 50,000 4T1 mammary carcinoma cells subQ on day 0. Thereafter, the 4 groups were treated as follows: 1) Indomethacin daily (in drinking water)+PBS subQ every 2 days; 2) Indomethacin daily (in drinking water)+S. aureus SSI subQ every 2 days; 3) Control vehicle daily (in drinking water)+PBS subQ every 2 days; and 4) Control vehicle daily (in drinking water)+S. aureus SSI subQ every 2 days.

`COc1ccc2c(c1)c(CC(=O)O)c(C)n2C(=O)c1ccc(Cl)cc1` [Indomethacin]: the “frequency of CD11b+ cells in the tumors relative to the control” value (day 11, indomethacin daily in drinking water, with PBS or S. aureus SSI (FIG. 35)) is given as “significantly increased”. For the same molecule, the “CD11b+ cells in the tumours” value (day 22 (FIG. 36)) is given as “increase”.
